Among the data in patent US10703733B2, “MCL-1 inhibitors” (Gilead Sciences, Inc., priority 2018, dated 2020) are IC50 and EC50 values, retold here.

Assay [1] deals with MCL-1/Bim interaction (recombinant human MCL-1 protein, residues 171-327; biotinylated human Bim peptide, residues 51-76) (Homo sapiens (Human), UniProt Q07820). The assay is described as follows: MCL-1/Bim Binding AlphaLISA Assay. As to conditions: 0.0625 nM 6xHis-Mcl-1 (171-327), 0.0625 nM biotinylated-Bim peptide. An outline of the steps: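 Protein 0.0625 nM + cpd, 1 h; add biotin-Bim 0.0625 nM, 2 h; acceptor beads 1 h; donor beads 1 h; AlphaScreen read. Buffer 20 mM Hepes pH 7.5, 150 mM NaCl, 1 mM DTT.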
Sequence of MCL-1/Bim interaction (recombinant human MCL-1 protein, residues 171-327; biotinylated human Bim peptide, residues 51-76) (Q07820 171-327): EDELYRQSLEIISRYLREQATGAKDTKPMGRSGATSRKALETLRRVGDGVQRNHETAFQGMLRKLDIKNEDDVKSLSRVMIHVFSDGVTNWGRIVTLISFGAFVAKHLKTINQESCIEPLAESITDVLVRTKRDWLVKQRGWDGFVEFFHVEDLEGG
For orientation: In Alpha technology, singlet oxygen from a donor bead excites a nearby acceptor bead.

Another assay deals with SKBR3 cells. The assay is described as follows: SKBR3 Cell Viability Assay (CellTiter Glo). The assay is classed as cell-based. The following applies: CellTiter Glo luminescence, read-out: MCL-1 CV SKBR3 EC50. A digest of the protocol:
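Viability read as CellTiter Glo luminescence after 72 h of compound exposure at 37° C./5% CO2, using 6,000 SKBR3 cells per well in McCoy 5A with 10% FBS. Percent inhibition scaled between DMSO wells and 10 μM puromycin wells.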

Structures are written as SMILES. Read-outs that look alike come from different tables or passages of the source.

By IC50 is commonly meant the point on the concentration scale where inhibition reaches its midpoint. One may read the EC50 as the concentration giving half of the maximal effect. In the case of `COC(=O)N1CCn2cc(C(=O)N[S@@]3(=O)=NC(=O)c4ccc5c(c4)N(C[C@@H]4CC[C@H]4[C@@H](OC)/C=C/C[C@H](C)C3)C[C@@]3(CCCc4cc(Cl)ccc43)CO5)cc2C1` [Example 177], the IC50 in assay [1] was determined as 0.129 nM. Moreover, the EC50 with SKBR3 cells (Homo sapiens, SK-BR-3, 72 h) came out at 46.4 nM.
On to `CO[C@H]1/C=C/CCC[S@@](=O)(NC(=O)CCn2cc(Cl)cn2)=NC(=O)c2ccc3c(c2)N(C[C@@H]2CC[C@H]21)C[C@@]1(CCCc2cc(Cl)ccc21)CO3` [Example 55], for which the IC50 in assay [1] turned out to be 0.2 nM. For the same compound, in the assay on SKBR3 cells (Homo sapiens, SK-BR-3, 72 h), the EC50 came out at 685 nM.
The matching figures for `COC[C@H]1C[C@@H](NC(=O)N[S@@]2(=O)=NC(=O)c3ccc4c(c3)N(C[C@@H]3CC[C@H]3[C@@H](OC)/C=C/C[C@H](C)C2)C[C@@]2(CCCc3cc(Cl)ccc32)CO4)C1` [Example 210]: 0.071 nM and 43.4 nM.
The matching figures for `CO[C@H]1/C=C/C[C@H](C)C[S@@](=O)(NC(=O)COC2(C)CCOCC2)=NC(=O)c2ccc3c(c2)N(C[C@@H]2CC[C@H]21)C[C@@]1(CCCc2cc(Cl)ccc21)CO3` [Example 124]: 0.066 nM and 95.8 nM.
The matching figures for `COc1nn(C)cc1C(=O)N[S@@]1(=O)=NC(=O)c2ccc3c(c2)N(C[C@@H]2CC[C@H]2[C@@H](O)/C=C/C[C@H](C)C1)C[C@@]1(CCCc2cc(Cl)ccc21)CO3` [Example 223]: 0.039 nM and 37.3 nM.
As for `COc1nn(C)cc1C(=O)N[S@@]1(=O)=NC(=O)c2ccc3c(c2)N(C[C@@H]2CC[C@H]2[C@@H](OC)/C=C/[C@H](OCCN(C)C)[C@H](C)C1)C[C@@]1(CCCc2cc(Cl)ccc21)CO3` [Example 403], the IC50 in assay [1] stood at 0.059 nM. The EC50 in the assay with SKBR3 cells (Homo sapiens, SK-BR-3, 72 h) was 13.8 nM.
As to `COC[C@@H]1CCN(C(=O)N[S@@]2(=O)=NC(=O)c3ccc4c(c3)N(C[C@@H]3CC[C@H]3[C@@H](OC)/C=C/C[C@H](C)C2)C[C@@]2(CCCc3cc(Cl)ccc32)CO4)C1` [Example 256], the IC50 in assay [1] stood at 0.162 nM. The concentration for a half-maximal effect (EC50) in the assay with SKBR3 cells (Homo sapiens, SK-BR-3, 72 h) was found to be 161 nM.
The matching figures for `CO[C@H]1/C=C/C[C@H](C)C[S@@](=O)(NC(=O)N[C@H]2C[C@@H]2C)=NC(=O)c2ccc3c(c2)N(C[C@@H]2CC[C@H]21)C[C@@]1(CCCc2cc(Cl)ccc21)CO3` [Example 117]: 0.113 nM and 82.9 nM.
In the case of `COCCn1cc(C(=O)N[S@@]2(=O)=NC(=O)c3ccc4c(c3)N(C[C@@H]3CC[C@H]3[C@@H](OC)/C=C/C[C@H](C)C2)C[C@@]2(CCCc3cc(Cl)ccc32)CO4)cn1` [Example 120], in assay [1], the half-inhibitory concentration (IC50) came to 0.167 nM. The EC50 in the assay with SKBR3 cells (Homo sapiens, SK-BR-3, 72 h) is 106 nM.
The matching figures for `CO[C@H]1/C=C/C[C@H](C)C[S@@](=O)(NC(=O)N2CCC(OC(F)F)CC2)=NC(=O)c2ccc3c(c2)N(C[C@@H]2CC[C@H]21)C[C@@]1(CCCc2cc(Cl)ccc21)CO3` [Example 330]: 0.03 nM and 56.4 nM.
As for `CO[C@H]1/C=C/C[C@H](C)C[S@@](=O)(NC(=O)c2cc(CN3CCOCC3)n(C)c2)=NC(=O)c2ccc3c(c2)N(C[C@@H]2CC[C@H]21)C[C@@]1(CCCc2cc(Cl)ccc21)CO3` [Example 308], in assay [1], the IC50 was 0.031 nM. For the same compound, the EC50 with SKBR3 cells (Homo sapiens, SK-BR-3, 72 h) came to 16.1 nM.
Turning to `CO[C@H]1/C=C/CCC[S@@](=O)(NC(=O)CCn2cncn2)=NC(=O)c2ccc3c(c2)N(C[C@@H]2CC[C@H]21)C[C@@]1(CCCc2cc(Cl)ccc21)CO3` [Example 42], the IC50 in assay [1] turned out to be 0.1 nM. In addition, the EC50 in the assay with SKBR3 cells (Homo sapiens, SK-BR-3, 72 h) is 3340 nM.
`CO[C@H]1CCC[C@H](C)C[S@@](=O)(NC(=O)NC2CC2)=NC(=O)c2ccc3c(c2)N(C[C@@H]2CC[C@H]21)C[C@@]1(CCCc2cc(Cl)ccc21)CO3` [Example 170]: the IC50 in assay [1] is 0.06 nM. Also, the EC50 in the assay on SKBR3 cells (Homo sapiens, SK-BR-3, 72 h) turned out to be 210 nM.
The matching figures for `CO[C@H]1/C=C/C[C@H](C)C[S@@](=O)(NC(=O)N[C@@H]2CC[C@@H](O)C2)=NC(=O)c2ccc3c(c2)N(C[C@@H]2CC[C@H]21)C[C@@]1(CCCc2cc(Cl)ccc21)CO3` [Example 222]: 0.044 nM and 80.1 nM.
Consider `CO[C@H]1/C=C/CCC[S@@](=O)(NC(=O)CCn2cc(C)cn2)=NC(=O)c2ccc3c(c2)N(C[C@@H]2CC[C@H]21)C[C@@]1(CCCc2cc(Cl)ccc21)CO3` [Example 61], for which, in assay [1], the IC50 stood at 0.1 nM. The EC50 in the assay on SKBR3 cells (Homo sapiens, SK-BR-3, 72 h) amounted to 775 nM.
The matching figures for `CO[C@H]1/C=C/C[C@H](C)C[S@@](=O)(NC(=O)N[C@@H]2C[C@H]2c2cnn(C)c2)=NC(=O)c2ccc3c(c2)N(C[C@@H]2CC[C@H]21)C[C@@]1(CCCc2cc(Cl)ccc21)CO3` [Example 129]: 0.077 nM and 64.7 nM.
The matching figures for `CO[C@H]1/C=C/C[C@H](C)C[S@@](=O)(NC(=O)N2CC(C3COC3)C2)=NC(=O)c2ccc3c(c2)N(C[C@@H]2CC[C@H]21)C[C@@]1(CCCc2cc(Cl)ccc21)CO3` [Example 261]: 0.053 nM and 72 nM.
The matching figures for `CO[C@H]1/C=C/CCC[S@@](=O)(NC(=O)CCCn2cccn2)=NC(=O)c2ccc3c(c2)N(C[C@@H]2CC[C@H]21)C[C@@]1(CCCc2cc(Cl)ccc21)CO3` [Example 85]: 0.6 nM and 3090 nM.
Take `CO[C@H]1/C=C/C[C@H](C)C[S@@](=O)(NC(=O)N[C@H]2CC23CCOC3)=NC(=O)c2ccc3c(c2)N(C[C@@H]2CC[C@H]21)C[C@@]1(CCCc2cc(Cl)ccc21)CO3` (single isomer, unassigned) [Example 341]: the IC50 in assay [1] was determined as 0.032 nM. Besides, the EC50 in the assay on SKBR3 cells (Homo sapiens, SK-BR-3, 72 h) is 39.4 nM.
The matching figures for `CO[C@H]1/C=C/CCC[S@@](=O)(NC(=O)CCC2CC2)=NC(=O)c2ccc3c(c2)N(C[C@@H]2CC[C@H]21)C[C@@]1(CCCc2cc(Cl)ccc21)CO3` [Example 81]: 0.5 nM and 612 nM.
The matching figures for `CO[C@H]1/C=C/CCC[S@@](=O)(NC(=O)OCc2ccnn2C)=NC(=O)c2ccc3c(c2)N(C[C@@H]2CC[C@H]21)C[C@@]1(CCCc2cc(Cl)ccc21)CO3` [Example 78]: 0.8 nM and 4070 nM.
`CO[C@H]1/C=C/C[C@H](C)C[S@@](=O)(NC(=O)N2CCN3CCOC[C@H]3C2)=NC(=O)c2ccc3c(c2)N(C[C@@H]2CC[C@H]21)C[C@@]1(CCCc2cc(Cl)ccc21)CO3` [Example 334]: the IC50 in assay [1] was found to be 0.041 nM. Further, the EC50 in the assay on SKBR3 cells (Homo sapiens, SK-BR-3, 72 h) is 48.6 nM.
The matching figures for `CO[C@H]1/C=C/C[C@H](C)C[S@@](=O)(NC(=O)NC2C[C@H]2C(F)F)=NC(=O)c2ccc3c(c2)N(C[C@@H]2CC[C@H]21)C[C@@]1(CCCc2cc(Cl)ccc21)CO3` (stereo partly drawn) [Example 207]: 0.162 nM and 44 nM.
For `CCCn1cc(C(=O)N[S@@]2(=O)=NC(=O)c3ccc4c(c3)N(C[C@@H]3CC[C@H]3[C@@H](OC)/C=C/C[C@H](C)C2)C[C@@]2(CCCc3cc(Cl)ccc32)CO4)cn1` [Example 420], in assay [1], the IC50 came out at 0.237 nM. For the same compound, in the assay with SKBR3 cells (Homo sapiens, SK-BR-3, 72 h), the EC50 was 124 nM.
The matching figures for `CO[C@@H]1CC[C@@H](NC(=O)N[S@@]2(=O)=NC(=O)c3ccc4c(c3)N(C[C@@H]3CC[C@H]3[C@@H](OC)/C=C/C[C@H](C)C2)C[C@@]2(CCCc3cc(Cl)ccc32)CO4)C1` [Example 322]: 0.057 nM and 64.4 nM.
The matching figures for `COC(=O)N1CC[C@@H](C(=O)N[S@@]2(=O)=NC(=O)c3ccc4c(c3)N(C[C@@H]3CC[C@H]3[C@@H](OC)/C=C/C[C@H](C)C2)C[C@@]2(CCCc3cc(Cl)ccc32)CO4)C1` [Example 438]: 0.187 nM and 278 nM.
The matching figures for `CO[C@H]1/C=C/C[C@H](C)C[S@@](=O)(NC(=O)C2CC3(CCOCC3)C2)=NC(=O)c2ccc3c(c2)N(C[C@@H]2CC[C@H]21)C[C@@]1(CCCc2cc(Cl)ccc21)CO3` [Example 435]: 0.114 nM and 167 nM.
Regarding `CNC1CN(C(=O)N[S@@]2(=O)=NC(=O)c3ccc4c(c3)N(C[C@@H]3CC[C@H]3[C@@H](OC)/C=C/C[C@H](C)C2)C[C@@]2(CCCc3cc(Cl)ccc32)CO4)C1` [Example 294], the IC50 in assay [1] was determined as 0.129 nM. Also, the EC50 in the assay on SKBR3 cells (Homo sapiens, SK-BR-3, 72 h) came out at 260 nM.
Turning to `COc1cn(C)cc1C(=O)N[S@@]1(=O)=NC(=O)c2ccc3c(c2)N(C[C@@H]2CC[C@H]2[C@@H](O)/C=C/C[C@H](C)[C@H]1C)C[C@@]1(CCCc2cc(Cl)ccc21)CO3` [Example 359], in assay [1], the IC50 came out at 0.038 nM. Moreover, the EC50 in the assay on SKBR3 cells (72 hours) came to 19 nM.
Turning to `CCC1CN(C(=O)N[S@@]2(=O)=NC(=O)c3ccc4c(c3)N(C[C@@H]3CC[C@H]3[C@@H](OC)/C=C/C[C@H](C)C2)C[C@@]2(CCCc3cc(Cl)ccc32)CO4)C1` [Example 242], the IC50 in assay [1] came to 0.074 nM. Also, the 50% effective concentration (EC50) in the assay with SKBR3 cells (Homo sapiens, SK-BR-3, 72 h) is 84 nM.
The matching figures for `CO[C@H]1/C=C/C[C@H](C)C[S@@](=O)(NC(=O)[C@H](O)Cc2ccccc2)=NC(=O)c2ccc3c(c2)N(C[C@@H]2CC[C@H]21)C[C@@]1(CCCc2cc(Cl)ccc21)CO3` [Example 122]: 0.161 nM and 113 nM.
The matching figures for `CO[C@H]1/C=C/CCC[S@@](=O)(NC(=O)CCc2ccncn2)=NC(=O)c2ccc3c(c2)N(C[C@@H]2CC[C@H]21)C[C@@]1(CCCc2cc(Cl)ccc21)CO3` [Example 38]: 0.2 nM and 280 nM.
The matching figures for `COC(=O)N1CCC(OCC(=O)N[S@@]2(=O)=NC(=O)c3ccc4c(c3)N(C[C@@H]3CC[C@H]3[C@@H](OC)/C=C/C[C@H](C)[C@H]2C)C[C@@]2(CCCc3cc(Cl)ccc32)CO4)CC1` [Example 418]: 0.197 nM and 335 nM.
